Legend:
ABCA1 mRNA [1] = assay: ABCA1 mRNA - HepG2 (qRT-PCR); format: cell-based, human
Description: (§1) qRT-PCR. For cell samples, treated cells were lysed with RLT plus lysis buffer (Qiagen). RNA was isolated with Qiagen RNEASY® Plus columns per manufacturer instructions, then reverse-transcribed to cDNA using […]® III Reverse Transcriptase (200 U/μL, Invitrogen) per supplier protocol. qPCR experiments were either performed with TAQMAN® gene expression master mix (Invitrogen) on a StepOne™ qPCR instrument or with […]® SYBR® Green SuperMix (Quanta Biosciences) on CFX Connect™ Real-Time PCR Detection System (BioRad), with fold-change quantified by ΔΔCt. For animal samples, 100 mg tissue was homogenized in 1 mL acid-guanidinium-phenol based reagent sold under the tradename TRIZOL® (Ambion), mixed vigorously in chloroform, and separated by centrifugation. Aqueous layer containing RNA was added to Qiagen RNEASY® Plus column; remaining stops were as described above for cell lysates.

SREBF1 mRNA = SREBF1 mRNA - HepG2 (qRT-PCR); format: cell-based, human
Description: as §1

ABCA1 mRNA [2] = assay: ABCA1 mRNA - J774 (qRT-PCR); format: cell-based, mouse
Description: as §1

ABCA1 protein [3] = assay: ABCA1 protein - J774 (immunoblot); format: cell-based
Procedure: (§2) In vitro Immunoblot. Cells were lysed with RIPA buffer (Sigma) containing protease/phosphatase inhibitors (Cocktails II and III, respectively, EMD Millipore). Protein was quantified by BCA assay (Thermo Fisher Scientific). Denatured proteins were separated by gel electrophoresis (NuPage™ 4-12% Bis-Tris, Invitrogen) in MOPS running buffer at 120 V for 1 hour. Proteins were transferred to PDVF membranes (iBlot2). Membrane was blocked in 5% skim milk for 1 hour, incubated with primary antibody at 4° C. overnight, washed with TBST, and then incubated with HRP-linked secondary antibody (Cell Signaling Technology) for 1 hour at room temperature. After TBST wash, membrane was imaged using SUPERSIGNAL® West Femto™ substrate (Thermo Fisher Scientific) on Azure Biosystems c400 imager. Antibodies used: Abcam ab18180 (ABCA1, RRID:AB 444302), Thermo Fisher MA5-11685 (SREBP1, RRID:AB_10984077), Invitrogen MA5-15738 (GAPDH, RRID:AB_10977387).

ABCA1 protein [4] = assay: ABCA1 protein - HepG2 (immunoblot); format: cell-based; conditions: HepG2 hepatocarcinoma cells
Procedure: as §2

RXRγ = molecular target: T1, RXRγ (Homo sapiens, UniProt P48443); assay: RXRγ NHR screen, antagonist mode; conditions: cell-based β-gal reporter assay, 10 μM
T1 sequence (P48443 1-463): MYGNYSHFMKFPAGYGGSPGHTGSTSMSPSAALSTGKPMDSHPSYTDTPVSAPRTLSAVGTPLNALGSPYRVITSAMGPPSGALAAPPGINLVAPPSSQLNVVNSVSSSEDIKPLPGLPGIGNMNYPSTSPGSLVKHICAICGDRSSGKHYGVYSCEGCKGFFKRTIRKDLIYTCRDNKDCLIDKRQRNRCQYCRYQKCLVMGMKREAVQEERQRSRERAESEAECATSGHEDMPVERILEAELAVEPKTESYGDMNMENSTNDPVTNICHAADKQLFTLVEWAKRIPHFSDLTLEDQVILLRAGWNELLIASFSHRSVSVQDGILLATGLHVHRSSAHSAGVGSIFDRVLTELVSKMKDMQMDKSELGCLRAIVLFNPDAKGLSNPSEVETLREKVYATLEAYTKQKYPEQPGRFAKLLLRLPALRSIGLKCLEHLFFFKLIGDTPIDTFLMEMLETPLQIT
Procedure: Receptor Binding Assays. Nuclear hormone (NHR) assays were performed by DiscoverX (Fremont, CA) on their NHR-Scan platform of cell-based protein-protein interaction assays. This platform uses a […] reporter that activates upon interaction of full-length receptor protein with steroid coactivator receptor peptides. In agonist mode, activity of CL2-57 at 10 μM was compared to maximal activity of published positive control agonists; in antagonist mode, reduction in activity with 10 μM CL2-57 from that observed at […] of published agonists was quantified.

PPARγ = molecular target: T2, PPARγ (Homo sapiens, UniProt P37231); assay: LanthaScreen TR-FRET coactivator assay PPARγ (antagonism of pioglitazone); format: biochemical
T2 construct: purchased Thermo Fisher Scientific
T2 sequence (P37231 232-505 limits assumed): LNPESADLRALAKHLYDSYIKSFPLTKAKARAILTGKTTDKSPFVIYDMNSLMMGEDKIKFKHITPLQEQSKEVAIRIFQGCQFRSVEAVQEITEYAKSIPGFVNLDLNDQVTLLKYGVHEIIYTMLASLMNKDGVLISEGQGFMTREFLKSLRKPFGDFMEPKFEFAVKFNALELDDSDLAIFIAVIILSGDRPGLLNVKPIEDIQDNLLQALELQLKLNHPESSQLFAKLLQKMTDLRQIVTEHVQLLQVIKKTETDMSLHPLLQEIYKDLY
Procedure: TR-FRET Receptor Binding Assays. LanthaScreen” TR-FRET coactivator assay kits for LXRβ (Thermo Fisher Scientific) and PPARγ (Thermo Fisher Scientific) were performed according to manufacturer instructions using low-binding black 384-well plates and Synergy Neo2 plate reader. For the PPARγ assay, standardization was first performed with control agonist (pioglitazone), then run in two antagonist assays: dose-response of pioglitazone with or without a single concentration of CL2-57, and dose-response of CL2-57 cotreated with a single concentration (500 nM) of pioglitazone. Each compound dose was performed in quadruplicate on each plate, and each experiment was performed in triplicate.

C57Bl/6 control mice = assay: C57Bl/6 control mice, daily p.o. CL2-57 for one week; format: in vivo, mouse

## CCOC(=O)c1cccc(NC(=O)c2sc(Cl)cc2S(=O)(=O)N(C)c2ccc(OCC)c(OCC)c2)c1 [CL2-57, ethyl 3-(5-chloro-3-(N-(3,4-diethoxyphenyl)-N-methylsulfamoyl)thiophene-2-carboxamido) benzoate]
ABCA1 mRNA [1]; 10 μM
  ABCA1 mRNA - HepG2, activity of CL2-57 (10 μM) as % of T0901317 (1 μM): 60%
ABCA1 mRNA [1]; HepG2 hepatocarcinoma cells
  ABCA1 mRNA: Increased
SREBF1 mRNA
  SREBF1 mRNA - HepG2, activity of CL2-57 (10 μM) as % of T0901317 (1 μM): 39%
ABCA1 mRNA [2]; 10 μM
  ABCA1 mRNA - J774, activity of CL2-57 (10 μM) as % of T0901317 (1 μM): 90%
ABCA1 mRNA [2]; J774 macrophage cells
  ABCA1 mRNA: Increased
ABCA1 protein [3]; 10 μM
  ABCA1 protein - J774, activity of CL2-57 (10 μM) as % of T0901317 (1 μM): 132%
ABCA1 protein [3]; J774 macrophage cells
  ABCA1 protein: Increased
ABCA1 protein [4]
  ABCA1 protein: Increased
RXRγ
  Functional mode at RXRγ: weak antagonist
PPARγ
  Activity in PPARγ TR-FRET binding assay: Weak competitive antagonism
PPARγ; addition of 10 μM CL2-57, p<0.01
  Right-shift in the TR-FRET dose-response for pioglitazone: 2.1 fold
PPARγ; constant pioglitazone concentration, CL2-57 at concentrations ≥1 μM
  TR-FRET signal reduction: 20-45%
C57Bl/6 control mice; 10 mg/kg daily p.o. one week
  Hepatic lipogenesis: low-magnitude increases
C57Bl/6 control mice; C57Bl/6 mice, one week daily p.o.
  Plasma TG or cholesterol compared to vehicle controls: no changes
